Experiments:
[1] = cited from earlier work
[2] = Concentration of calcium in blood of osteoporosis-induced mice (QuantiChrom calcium assay kit); format: in vivo; conditions: ovariectomized ICR mice; PTH 20 μg/kg daily for 3 months, fusion peptide 80 pg/kg weekly for 6 months
Method: Six week-old ICR mice were anesthetized by intramuscular injection using a mixture of 10 mg/kg of xylazine (Rompun®, Bayer, Korea) and 100 mg/kg of ketamine (Ketalar®, Yuhan Co., Ltd., Korea) and then the ovaries present below the bilateral kidneys were entirely removed carefully. Suturing was performed by an ordinary method and 3 mg/kg of gentamicin (Gentamycin®, JW Pharmaceutical Corporation, Korea) was intramuscularly injected.
Three months after the ovariectomy, whether or not bone loss occurred was checked. […] The change in bone density was evaluated, as compared with a group not treated with osteoporosis.
The concentration of calcium in blood was determined using a QuantiChrom™ calcium assay kit (Bioassay Systems, Hayward, Calif.). […] One of the effects of PTH on the human body is to increase the concentration of calcium in blood by affecting bones and kidneys. Therefore, long-term administration of PTH causes side effects that induce hypercalcemia.

Structure (SMILES)	half-life ([1]; subcutaneous injection once a day) [h]	side effects ([1]; upon use for a long time of 2 years or longer)	concentration of calcium in blood [2]
CC[C@H](C)[C@H](NC(=O)[C@H](CCC(=O)O)NC(=O)[C@H](CO)NC(=O)[C@@H](NC(=O)[C@@H](N)CO)C(C)C)C(=O)N[C@@H](CCC(N)=O)C(=O)N[C@@H](CC(C)C)C(=O)N[C@@H](CCSC)C(=O)N[C@@H](Cc1cnc[nH]1)C(=O)N[C@@H](CC(N)=O)C(=O)N[C@@H](CC(C)C)C(=O)NCC(=O)N[C@@H](CCCCN)C(=O)N[C@@H](Cc1cnc[nH]1)C(=O)N[C@@H](CC(C)C)C(=O)N[C@@H](CC(N)=O)C(=O)N[C@@H](CO)C(=O)N[C@@H](CCSC)C(=O)N[C@@H](CCC(=O)O)C(=O)N[C@@H](CCCN=C(N)N)C(=O)N[C@H](C(=O)N[C@@H](CCC(=O)O)C(=O)N[C@@H](Cc1c[nH]c2ccccc12)C(=O)N[C@@H](CC(C)C)C(=O)N[C@@H](CCCN=C(N)N)C(=O)N[C@@H](CCCCN)C(=O)N[C@@H](CCCCN)C(=O)N[C@@H](CC(C)C)C(=O)N[C@@H](CCC(N)=O)C(=O)N[C@@H](CC(=O)O)C(=O)N[C@H](C(=O)N[C@@H](Cc1cnc[nH]1)C(=O)N[C@@H](CC(N)=O)C(=O)N[C@@H](Cc1ccccc1)C(=O)O)C(C)C)C(C)C [Forteo]	≤ 1	hypercalcemia and even a high incidence of osteosarcoma	
CC[C@H](C)[C@H](NC(=O)[C@H](CCC(=O)O)NC(=O)[C@H](CO)NC(=O)[C@@H](NC(=O)[C@@H](N)CO)C(C)C)C(=O)N[C@@H](CCC(N)=O)C(=O)N[C@@H](CC(C)C)C(=O)N[C@@H](CCSC)C(=O)N[C@@H](Cc1cnc[nH]1)C(=O)N[C@@H](CC(N)=O)C(=O)N[C@@H](CC(C)C)C(=O)NCC(=O)N[C@@H](CCCCN)C(=O)N[C@@H](Cc1cnc[nH]1)C(=O)N[C@@H](CC(C)C)C(=O)N[C@@H](CC(N)=O)C(=O)N[C@@H](CO)C(=O)N[C@@H](CCSC)C(=O)N[C@@H](CCC(=O)O)C(=O)N[C@@H](CCCN=C(N)N)C(=O)N[C@H](C(=O)N[C@@H](CCC(=O)O)C(=O)N[C@@H](Cc1c[nH]c2ccccc12)C(=O)N[C@@H](CC(C)C)C(=O)N[C@@H](CCCN=C(N)N)C(=O)N[C@@H](CCCCN)C(=O)N[C@@H](CCCCN)C(=O)N[C@@H](CC(C)C)C(=O)N[C@@H](CCC(N)=O)C(=O)N[C@@H](CC(=O)O)C(=O)N[C@H](C(=O)N[C@@H](Cc1cnc[nH]1)C(=O)N[C@@H](CC(N)=O)C(=O)N[C@@H](Cc1ccccc1)C(=O)O)C(C)C)C(C)C [PTH, reference compound]			increased the concentration of calcium at one month

From patent US11179445B2, “Pharmaceutical composition and biomaterial comprising fusion peptide in which bone tissue-selective peptide bound to parathyroid hormone (PTH) or fragment thereof” (Nano Intelligent Biomedical Engineering Corporation Co. Ltd., priority 2017, dated 2021)
